# Measured values from PMC11206519, “Multi-Endpoint Toxicological Assessment of Chrysin Loaded Oil-in-Water Emulsion System in Different Biological Models” (Nanomaterials, 2024).
# System: D. melanogaster trans-heterozygous mwh+/+flr3 larvae of the HB cross
# Assay: SMART wing spot test, anti-mutagenicity, HB cross
# Procedure: The somatic mutation and recombination test, or the wing spot test, using D. melanogaster was employed as an in vivo system to assess the mutagenicity and anti-mutagenicity of chrysin-ES. Two different crosses were conducted: (i) a standard cross (ST) and (ii) a high bioactivation cross (HB). The standard cross larvae were obtained from virgin female of flr3/TM3, Ser crossed with males of mwh/mwh, while the HB cross larvae expressing cytochrome P450 enzymes involved in xenobiotic biotransformation were obtained from virgin females of ORR/ORR; flr^3/In (3LR) TM3, ri p^psep l (3)89Aa bx^34e e Bd^s crossed with males of mwh/mwh. The flies were cultured at a constant temperature of 25 ± 1 °C and 60–70% RH at photoperiod 12:12 (light/dark). To evaluate the mutagenicity of chrysin and chrysin-ES, a hundred larva F1 progenies derived from the above crossing were fed with instant Drosophila medium (Formula 4-24®), Carolina, Burlington, NC, USA) containing chrysin or chrysin-ES (20–120 µg/mL). DI was used as a negative control, while 20 mM urethane (URE) was used as a positive control. The larvae were reared on each medium until pupation at 25 °C. After that, forty wings of surviving flies in each group were collected for mutant analysis. The mutant spots on the wings, including small single spots, large single spots, and twin spots, were counted. The statistical significance was calculated as previously described by Frei and Würgler.
# Furthermore, the anti-mutagenicity of the samples was performed by a similar procedure as mentioned above.
# [1] = NMU (sodium nitrite 36 mM: methylurea 10 mM) + 20 μg/mL
smiles,measurement,setting,value
"O=c1cc(-c2ccccc2)oc2cc(O)cc(O)c12 [Chrysin, 5,7-dihydroxyflavone]",Inhibition (%),EMS 5 mM + 20 μg/mL,25%
same,Inhibitory Classification,EMS 5 mM + 20 μg/mL,Weak
same,"Mutant spots per individual (number of spots), Large Single",EMS 5 mM + 20 μg/mL,1.63 (65)
same,"Mutant spots per individual (number of spots), Small Single",EMS 5 mM + 20 μg/mL,5.3 (212)
same,"Mutant spots per individual (number of spots), Total",EMS 5 mM + 20 μg/mL,7.80 (312)
same,"Mutant spots per individual (number of spots), Twin",EMS 5 mM + 20 μg/mL,0.88 (35)
same,Inhibition (%),EMS 5 mM + 40 μg/mL,31%
same,Inhibitory Classification,EMS 5 mM + 40 μg/mL,Weak
same,"Mutant spots per individual (number of spots), Large Single",EMS 5 mM + 40 μg/mL,0.78 (31)
same,"Mutant spots per individual (number of spots), Small Single",EMS 5 mM + 40 μg/mL,6.03 (241)
same,"Mutant spots per individual (number of spots), Total",EMS 5 mM + 40 μg/mL,7.13 (285)
same,"Mutant spots per individual (number of spots), Twin",EMS 5 mM + 40 μg/mL,0.33 (13)
same,Inhibition (%),EMS 5 mM + 80 μg/mL,60%
same,Inhibitory Classification,EMS 5 mM + 80 μg/mL,Moderate
same,"Mutant spots per individual (number of spots), Large Single",EMS 5 mM + 80 μg/mL,0.73 (29)
same,"Mutant spots per individual (number of spots), Small Single",EMS 5 mM + 80 μg/mL,3.23 (129)
same,"Mutant spots per individual (number of spots), Total",EMS 5 mM + 80 μg/mL,4.18 (167)
same,"Mutant spots per individual (number of spots), Twin",EMS 5 mM + 80 μg/mL,0.23 (9)
same,Inhibition (%),EMS 5 mM + 120 μg/mL,76%
same,Inhibitory Classification,EMS 5 mM + 120 μg/mL,Strong
same,"Mutant spots per individual (number of spots), Large Single",EMS 5 mM + 120 μg/mL,0.20 (8)
same,"Mutant spots per individual (number of spots), Small Single",EMS 5 mM + 120 μg/mL,2.20 (88)
same,"Mutant spots per individual (number of spots), Total",EMS 5 mM + 120 μg/mL,2.53 (101)
same,"Mutant spots per individual (number of spots), Twin",EMS 5 mM + 120 μg/mL,0.13 (5)
same,Inhibition (%),MMC 0.05 mM + 20 μg/mL,5%
same,Inhibitory Classification,MMC 0.05 mM + 20 μg/mL,Negligible
same,"Mutant spots per individual (number of spots), Large Single",MMC 0.05 mM + 20 μg/mL,0.85 (34)
same,"Mutant spots per individual (number of spots), Small Single",MMC 0.05 mM + 20 μg/mL,3.70 (148)
same,"Mutant spots per individual (number of spots), Total",MMC 0.05 mM + 20 μg/mL,4.65 (186)
same,"Mutant spots per individual (number of spots), Twin",MMC 0.05 mM + 20 μg/mL,0.10 (4)
same,Inhibition (%),MMC 0.05 mM + 40 μg/mL,60%
same,"Mutant spots per individual (number of spots), Large Single",MMC 0.05 mM + 40 μg/mL,0.18 (7)
same,"Mutant spots per individual (number of spots), Small Single",MMC 0.05 mM + 40 μg/mL,1.63 (65)
same,"Mutant spots per individual (number of spots), Total",MMC 0.05 mM + 40 μg/mL,1.93 (77)
same,"Mutant spots per individual (number of spots), Twin",MMC 0.05 mM + 40 μg/mL,0.13 (5)
same,Inhibition (%),MMC 0.05 mM + 80 μg/mL,79%
same,Inhibitory Classification,MMC 0.05 mM + 80 μg/mL,Strong
same,"Mutant spots per individual (number of spots), Large Single",MMC 0.05 mM + 80 μg/mL,0.08 (3)
same,"Mutant spots per individual (number of spots), Small Single",MMC 0.05 mM + 80 μg/mL,0.98 (39)
same,"Mutant spots per individual (number of spots), Total",MMC 0.05 mM + 80 μg/mL,1.05 (42)
same,"Mutant spots per individual (number of spots), Twin",MMC 0.05 mM + 80 μg/mL,0 (0)
same,Inhibition (%),MMC 0.05 mM + 120 μg/mL,88%
same,Inhibitory Classification,MMC 0.05 mM + 120 μg/mL,Strong
same,"Mutant spots per individual (number of spots), Large Single",MMC 0.05 mM + 120 μg/mL,0.03 (1)
same,"Mutant spots per individual (number of spots), Small Single",MMC 0.05 mM + 120 μg/mL,0.55 (22)
same,"Mutant spots per individual (number of spots), Total",MMC 0.05 mM + 120 μg/mL,0.58 (23)
same,"Mutant spots per individual (number of spots), Twin",MMC 0.05 mM + 120 μg/mL,0 (0)
same,Inhibition (%),[1],54%
same,Inhibitory Classification,[1],Moderate
same,"Mutant spots per individual (number of spots), Large Single",[1],0.09 (3)
same,"Mutant spots per individual (number of spots), Small Single",[1],0.78 (25)
same,"Mutant spots per individual (number of spots), Total",[1],0.88 (28)
same,"Mutant spots per individual (number of spots), Twin",[1],0 (0)
same,Inhibitory Classification,"NMU (sodium nitrite 36 mM: methylurea 10 mM) + 20 μg/mL, listed as chrysin",moderate (41–60%)
same,Inhibition (%),NMU + 40 μg/mL,80%
same,Inhibitory Classification,NMU + 40 μg/mL,Strong
same,"Mutant spots per individual (number of spots), Large Single",NMU + 40 μg/mL,0.05 (2)
same,"Mutant spots per individual (number of spots), Small Single",NMU + 40 μg/mL,0.30 (12)
same,"Mutant spots per individual (number of spots), Total",NMU + 40 μg/mL,0.38 (15)
same,"Mutant spots per individual (number of spots), Twin",NMU + 40 μg/mL,0.03 (1)
